Source: patent US20240109917A1 (ACTELION PHARMACEUTICALS LTD, priority 2020, published 2024)

The molecules below were run against His6-TEV-PDGFRβ (557-1016) (Homo sapiens (Human), UniProt P09619) (assay: PDGFRβ HTRF Assay). Conditions: read-out: PDGFR HTRF IC50.
Format: biochemical
In short: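 Human PDGFRβ (557-1016) pre-incubated with compound for 30 min at RT in pH 7.5 HEPES/MgCl2/EGTA/Brij-35/DTT buffer. Reaction started with ATP and TK-biotin peptide, run 3 h at RT, then quenched with EDTA-containing Eu-cryptate antibody/streptavidin-XL665. HTRF 665/620 nm ratio read after 60 min; percent inhibition relative to DMSO and 10 μM imatinib controls.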

Sequence of His6-TEV-PDGFRβ (557-1016) (P09619 557-1016): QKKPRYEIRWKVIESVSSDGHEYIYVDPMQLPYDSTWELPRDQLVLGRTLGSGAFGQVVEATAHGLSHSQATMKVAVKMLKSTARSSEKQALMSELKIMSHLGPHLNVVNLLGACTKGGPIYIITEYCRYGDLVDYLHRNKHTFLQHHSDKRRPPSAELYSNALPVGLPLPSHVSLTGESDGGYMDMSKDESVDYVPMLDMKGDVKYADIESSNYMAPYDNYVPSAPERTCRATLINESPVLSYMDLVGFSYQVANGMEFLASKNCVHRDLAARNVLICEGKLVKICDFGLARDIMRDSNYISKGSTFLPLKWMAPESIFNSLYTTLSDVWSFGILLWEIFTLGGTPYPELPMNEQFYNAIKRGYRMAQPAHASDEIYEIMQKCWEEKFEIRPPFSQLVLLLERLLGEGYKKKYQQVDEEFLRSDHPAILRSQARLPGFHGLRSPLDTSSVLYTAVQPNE

Point of comparison: COCCn1cc(-c2cn3ncc(C(=O)Nc4cc(NC(=O)C[C@H]5CCCN5C(C)C)cnc4C)c3s2)cn1 [Example 485, (R)—N-(5-(2-(1-isopropylpyrrolidin-2-yl)acetamido)-2-methylpyridin-3-yl)-2-(1-(2-methoxyethyl)-1H-pyrazol-4-yl)pyrazolo[5,1-b]thiazole-7-carboxamide], IC50 0.8 nM. Against it:
- COCCn1cc(-c2cn3ncc(C(=O)Nc4cc(NC(=O)C[C@H]5CCN(C(C)C)C5)cnc4C)c3s2)cn1 [Example 486, (R)—N-(5-(2-(1-isopropylpyrrolidin-3-yl)acetamido)-2-methylpyridin-3-yl)-2-(1-(2-methoxyethyl)-1H-pyrazol-4-yl)pyrazolo[5,1-b]thiazole-7-carboxamide] — 3.2-fold higher, 2.6 nM
- COCCn1cc(-c2cn3ncc(C(=O)Nc4cc(NC(=O)C5(CN6CCCC6(C)C)CC5)cnc4C)c3s2)cn1 [Example 487, N-(5-(1-((2,2-dimethylpyrrolidin-1-yl)methyl)cyclopropane-carboxamido)-2-methylpyridin-3-yl)-2-(1-(2-methoxyethyl)-1H-pyrazol-4-yl)pyrazolo[5,1-b]thiazole-7-carboxamide] — 9.6-fold higher, 7.7 nM
- COCCn1cc(-c2cn3ncc(C(=O)Nc4cc(NC(=O)C(C)(C)CN5CCCC5(C)C)cnc4C)c3s2)cn1 [Example 488, N-(5-(3-(2,2-dimethylpyrrolidin-1-yl)-2,2-dimethyl-propanamido)-2-methylpyridin-3-yl)-2-(1-(2-methoxyethyl)-1H-pyrazol-4-yl)pyrazolo[5,1-b]thiazole-7-carboxamide] — 120-fold higher, 92.3 nM
- Cc1ncc(NC(=O)CNCC(C)C)cc1NC(=O)c1cnn2cc(-c3cnn4c3CCC4)sc12 [Example 493, 2-(5,6-dihydro-4H-pyrrolo[1,2-b]pyrazol-3-yl)-N-(5-(2-(isobutylamino)acetamido)-2-methylpyridin-3-yl)pyrazolo[5,1-b]thiazole-7-carboxamide] — 4-fold lower, 0.2 nM
- Cc1ncc(NC(=O)CNC2CCC2)cc1NC(=O)c1cnn2cc(-c3cnn4c3OCCC4)sc12 [Example 494, N-(5-(2-(cyclobutylamino)acetamido)-2-methylpyridin-3-yl)-2-(6,7-dihydro-5H-pyrazolo[5,1-b][1,3]oxazin-3-yl)pyrazolo[5,1-b]thiazole-7-carboxamide] — 2-fold lower, 0.4 nM
- Cc1ncc(NC(=O)CNC2(C)CCC2)cc1NC(=O)c1cnn2cc(-c3cnn4c3OCCC4)sc12 [Example 495, 2-(6,7-dihydro-5H-pyrazolo[5,1-b][1,3]oxazin-3-yl)-N-(2-methyl-5-(2-((1-methylcyclobutyl)amino)acetamido)pyridin-3-yl)pyrazolo[5,1-b]thiazole-7-carboxamide] — 2.7-fold lower, 0.3 nM
- Cc1ncc(NC(=O)OC[C@@H]2CCCN2C)cc1NC(=O)c1cnn2cc(-c3cn(C)nc3C)sc12 [Example 496, (S)-(1-methylpyrrolidin-2-yl)methyl (5-(2-(1,3-dimethyl-1H-pyrazol-4-yl)pyrazolo[5,1-b]thiazole-7-carboxamido)-6-methylpyridin-3-yl)carbamate] — 2.7-fold lower, 0.3 nM
